Assay results published in paper PMC9405102, “Targeted Modification and Structure-Activity Study of GL-29, an Analogue of the Antimicrobial Peptide Palustrin-2ISb” (Antibiotics, 2022).
Like-named read-outs stand apart in the source and are kept apart here. Where no end group is shown, it is not given here.

What was measured:
E. faecalis (NCTC 12697) [1] = format: cell-based, Enterococcus faecalis; conditions: NCTC 12697
Experimental: (§1) The antimicrobial activity of the peptides was determined through the minimum inhibitory concentrations (MICs) and the minimum bactericidal concentration (MBCs) using the broth-dilution method in a 96-well plate, as described in the previous study. Six bacteria, including the Gram-positive bacteria, S. aureus (ATCC CRM 6538), MRSA (ATCC CRM 12493) and E. faecalis (NCTC 12697), the Gram-negative bacteria, E. coli (ATCC CRM 8739), K. pneumoniae (ATCC CRM 43816) and P. aeruginosa (ATCC CRM 9027), the yeast, C. albicans (ATCC CRM 10231) and clinical isolates, S. aureus (B042 V2E1 A), MRSA (B038 V1S1 A), E. coli (ATCC BAA-2340) and K. pneumoniae (ATCC BAA-1705) were used in these assays to evaluate the antimicrobial potency of the two peptides by determining their MICs and MBCs. All bacteria were cultured in MHB and the yeast, C. albicans was cultured in YPD broth overnight. Then, the microorganisms were sub-cultured and diluted to the final concentration of 2 × 10^5 CFU/mL to 5 × 10^5 CFU/mL. The Norfloxacin and amphotericin B were used as positive controls for the bacteria and yeast, respectively. The assay was repeated three times, with five replicates at each time.

[2] = tested on: P. aeruginosa (ATCC CRM 9027); format: cell-based, Pseudomonas aeruginosa; conditions: ATCC CRM 9027
Experimental: as §1

[3] = tested on: C. albicans (ATCC CRM 10231); format: cell-based, Candida albicans; conditions: ATCC CRM 10231
Experimental: as §1

[4] = tested on: S. aureus (ATCC CRM 6538); format: cell-based, Staphylococcus aureus; conditions: ATCC CRM 6538
Experimental: as §1

S. aureus (B042 V2E1 A) = format: cell-based, Staphylococcus aureus; conditions: B042 V2E1 A
Experimental: as §1

MRSA (ATCC CRM 12493) [5] = format: cell-based, methicillin-resistant S. aureus; conditions: ATCC CRM 12493
Experimental: as §1

MRSA (B038 V1S1 A) = format: cell-based, methicillin-resistant S. aureus; conditions: B038 V1S1 A
Experimental: as §1

E. coli (ATCC BAA-2340) = format: cell-based, Escherichia coli; conditions: ATCC BAA-2340
Experimental: as §1

E. coli (ATCC CRM 8739) [6] = format: cell-based, Escherichia coli; conditions: ATCC CRM 8739
Experimental: as §1

[7] = tested on: K. pneumoniae (ATCC BAA-1705); format: cell-based, Klebsiella pneumoniae; conditions: ATCC BAA-1705
Experimental: as §1

[8] = tested on: K. pneumoniae (ATCC CRM 43816); format: cell-based, Klebsiella pneumoniae; conditions: ATCC CRM 43816
Experimental: as §1

[9] = tested on: S. aureus (ATCC CRM 6538); format: cell-based, Staphylococcus aureus; conditions: ATCC CRM 6538, 24 h
Experimental: (§2) The MBIC and MBEC assays were performed to measure the inhibition and eradication of bacterial biofilm in the presence of different concentrations of peptides. Gram-positive bacteria were inoculated in Luria–Bertani (LB) broth at 37 °C overnight whereas Gram-negative bacteria were inoculated in tryptic soy broth (TSB), and then sub-cultured until reaching the logarithmic growth phase by measuring the OD values at a wavelength of 550nm. For the MBIC assay, 99 µL of diluted bacterial suspension (5 × 10^5 CFU/mL) was mixed with 1 µL of prepared peptide solutions in the wells of a round-bottomed 96-well plate, achieving the final concentrations from 512 to 1 µM, and then incubated at 37 °C for 24 h in a shaking incubator at 200 revolutions per minute (rpm). After this, the plate was washed twice by PBS and fixed with methanol for 30 min. For MBEC assay, 100 µL of diluted bacterial suspension (5 × 10^5 CFU/mL) was seeded into a round-bottomed 96-well plate and incubated at 37 °C for 24 h in a shaking incubator at 200 rpm to obtain mature biofilm. After this, plates were washed twice by PBS and incubated with different concentrations of peptide solution from 512 to 1 µM at 37 °C for 24 h. Afterwards, the plate was washed twice with PBS and fixed with methanol for 30 min. Then, both MBIC and MBEC plates were stained by 130 μL of 0.1% (g/v) crystal violet solutions for 30 min and washed with PBS until no apparent staining was observed. Evaporating crystal violet stains were dissolved by 33% (v/v) acetic acid, and the absorbance values were measured by a Synergy HT Microplate Reader (BioTek, Minneapolis, MN, USA) set to 595 nm. The minimum concentration that inhibited the formation of biofilm was defined when compared to the negative control group, as the MBIC. The minimum concentration that eradicated the biofilm was defined, when compared to the negative control group, as the MBEC. The biofilm assays were performed in triplicate.

E. faecalis (NCTC 12697) [10] = format: cell-based, Enterococcus faecalis; conditions: NCTC 12697, 24 h
Experimental: as §2

MRSA (ATCC CRM 12493) [11] = format: cell-based, methicillin-resistant S. aureus; conditions: ATCC CRM 12493, 24 h
Experimental: as §2

E. coli (ATCC CRM 8739) [12] = format: cell-based, Escherichia coli; conditions: ATCC CRM 8739, 24 h
Experimental: as §2

[13] = tested on: K. pneumoniae (ATCC CRM 43816); format: cell-based, Klebsiella pneumoniae; conditions: ATCC CRM 43816, 24 h
Experimental: as §2

[14] = tested on: P. aeruginosa (ATCC CRM 9027); format: cell-based, Pseudomonas aeruginosa; conditions: ATCC CRM 9027, 24 h
Experimental: as §2

horse erythrocytes = format: cell-based
Experimental: The haemolysis assays were performed by incubating prewashed erythrocyte suspension obtained from fresh defibrinated horse blood (TCS Biosciences Ltd., Buckingham, UK) with a range of peptides at final concentrations from 512 to 1 μM, for 2 h at 37 °C. The red cell suspensions were washed with phosphate-buffered saline (PBS) until the supernatant was clear and then diluted with PBS to form a 2% cell suspension. Peptides were 2-fold diluted by the 2% cell suspension to reach the final concentration range from 512 to 1 μM. The haemolysis of the cell suspensions with either 1% (v/v) Triton X-100 or PBS, were considered as positive controls and negative controls, respectively. After incubation, the extent of haemolysis was determined by measuring the absorbance of the supernatant from each sample at 570 nm with a Synergy HT plate reader (BioTek, USA).
Data were analysed using Prism (Version 8.2.1; GraphPad Software, Inc, San Diego, CA, USA). Error bars in the graphs represented standard errors of means (SEM) of nine repeats from three independent tests. The statistical significance was calculated using two-way ANOVA and is indicated as ns (non-significant difference), * (p < 0.05), ** (p < 0.01), *** (p < 0.001), ****(p < 0.0001). The HC10, HC50 and IC50 values were calculated using the online tool AAT Bioquest (https://www.aatbio.com/index.html, accessed on 6 May 2022).

LFVNVLDKIR-NH2 [LF-10, LFVNVLDKIR-NH2]
MBC (E. faecalis (NCTC 12697) [1]): >512 µM
MIC (E. faecalis (NCTC 12697) [1]): >512 µM
MBC [2]: >512 µM
MIC [2]: >512 µM
MBC [3]: >512 µM
MIC [3]: >512 µM
MBC [4]: >512 µM
MIC [4]: >512 µM
MBC (S. aureus (B042 V2E1 A)): >512 µM
MIC (S. aureus (B042 V2E1 A)): >512 µM
MBC (MRSA (ATCC CRM 12493) [5]): >512 µM
MIC (MRSA (ATCC CRM 12493) [5]): >512 µM
MBC (MRSA (B038 V1S1 A)): >512 µM
MIC (MRSA (B038 V1S1 A)): >512 µM
MBC (E. coli (ATCC BAA-2340)): >512 µM
MIC (E. coli (ATCC BAA-2340)): >512 µM
MBC (E. coli (ATCC CRM 8739) [6]): >512 µM
MIC (E. coli (ATCC CRM 8739) [6]): >512 µM
MBC [7]: >512 µM
MIC [7]: >512 µM
MBC [8]: >512 µM
MIC [8]: >512 µM
MBEC [9]: >512 µM
MBIC [9]: >512 µM
MBEC (E. faecalis (NCTC 12697) [10]): >512 µM
MBIC (E. faecalis (NCTC 12697) [10]): >512 µM
MBEC (MRSA (ATCC CRM 12493) [11]): >512 µM
MBIC (MRSA (ATCC CRM 12493) [11]): >512 µM
MBEC (E. coli (ATCC CRM 8739) [12]): >512 µM
MBIC (E. coli (ATCC CRM 8739) [12]): >512 µM
MBEC [13]: >512 µM
MBIC [13]: >512 µM
MBEC [14]: >512 µM
MBIC [14]: >512 µM

FVNVLDKI-NH2 [FV-8, FVNVLDKI-NH2]
MBC (E. faecalis (NCTC 12697) [1]): >512 µM
MIC (E. faecalis (NCTC 12697) [1]): >512 µM
MBC [2]: >512 µM
MIC [2]: >512 µM
MBC [3]: >512 µM
MIC [3]: >512 µM
MBC [4]: >512 µM
MIC [4]: >512 µM
MBC (S. aureus (B042 V2E1 A)): >512 µM
MIC (S. aureus (B042 V2E1 A)): >512 µM
MBC (MRSA (ATCC CRM 12493) [5]): >512 µM
MIC (MRSA (ATCC CRM 12493) [5]): >512 µM
MBC (MRSA (B038 V1S1 A)): >512 µM
MIC (MRSA (B038 V1S1 A)): >512 µM
MBC (E. coli (ATCC BAA-2340)): >512 µM
MIC (E. coli (ATCC BAA-2340)): >512 µM
MBC (E. coli (ATCC CRM 8739) [6]): >512 µM
MIC (E. coli (ATCC CRM 8739) [6]): >512 µM
MBC [7]: >512 µM
MIC [7]: >512 µM
MBC [8]: >512 µM
MIC [8]: >512 µM
HC10 (horse erythrocytes): 504.21 µM
HC10 (horse erythrocytes; red cells of horse, 2 h): 583.6 µM
MBEC [9]: >512 µM
MBIC [9]: >512 µM
MBEC (E. faecalis (NCTC 12697) [10]): >512 µM
MBIC (E. faecalis (NCTC 12697) [10]): >512 µM
MBEC (MRSA (ATCC CRM 12493) [11]): >512 µM
MBIC (MRSA (ATCC CRM 12493) [11]): >512 µM
MBEC (E. coli (ATCC CRM 8739) [12]): >512 µM
MBIC (E. coli (ATCC CRM 8739) [12]): >512 µM
MBEC [13]: >512 µM
MBIC [13]: >512 µM
MBEC [14]: >512 µM
MBIC [14]: >512 µM
